Ki data for 12 molecules are collected here from patent publication US6096752A, “Method for the preparation of tertiary amines, a compound useful therefor and alpha-2-receptor active tetrahydroisoquinoline derivatives” (priority 1998, dated 2000).

This assay addresses T1, human α2A (α2 -C10)-adrenoceptor (Homo sapiens, UniProt P08913).
T1 construct: expressed in transfected cells; host or cells: S115 cells (recombinant mammalian S115 cell line), crude particulate homogenate
T1 sequence (P08913 1-465): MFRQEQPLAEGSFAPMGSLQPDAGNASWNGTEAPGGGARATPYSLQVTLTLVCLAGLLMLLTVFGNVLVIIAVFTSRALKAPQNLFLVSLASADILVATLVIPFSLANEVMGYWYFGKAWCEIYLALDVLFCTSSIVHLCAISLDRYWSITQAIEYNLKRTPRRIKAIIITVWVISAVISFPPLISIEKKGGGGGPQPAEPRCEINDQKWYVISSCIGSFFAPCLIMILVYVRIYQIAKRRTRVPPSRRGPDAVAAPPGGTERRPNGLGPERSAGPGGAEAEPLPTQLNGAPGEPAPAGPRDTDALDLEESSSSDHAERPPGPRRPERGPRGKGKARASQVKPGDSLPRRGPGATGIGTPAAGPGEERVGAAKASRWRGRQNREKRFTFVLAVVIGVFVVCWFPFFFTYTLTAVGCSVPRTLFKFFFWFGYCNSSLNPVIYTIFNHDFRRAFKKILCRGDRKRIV
Briefly: [3H]-rauwolscine radioligand receptor binding (competition) assay, α2A-adrenoceptor. The note with it: recombinant mammalian S115 cell line; 1 nM [3H]-rauwolscine; 50 mM KH2PO4 pH 7.5; 30 min at 25° C.; read-out: α2A aff (Ki values). The protocol: The affinity of the test compounds on the α2 -adrenoceptor was established using the recombinant mammalian S115 cell line expressing the human α2A (α2 -C10)-adrenoceptor (7) in a radioligand receptor binding assay. The cells were harvested and suspended in 30 v/w of 50 mM Tris with 5 mM EDTA (pH 7.5 at 4° C.) and homogenized in Teflon-glass homogenizer. Cell homogenate was then centrifuged twice at 47,800×g (Sorvall RC-5C) for 30 min at 4° C. with re-suspension by two strokes in Tris/EDTA buffer. The final pellet was re-suspended in ten v/w of incubation buffer (50 mM KH2 PO4 buffer, pH 7.5 at 25° C.) and distributed in aliquots to be stored at -80° C. for later use.
In a competition binding experiment, the radioligands were incubated at 1 nM [^3 H]-rauwolscine with the cell suspension (20-50 μg of total protein per tube) with or without presence of a test compound in 50 mM KH2 PO4 (pH 7.5 at 25° C.) in a total volume of 0.25 ml. Non-specific binding of the radioligand was determined using 0.1 mM oxymetazoline. After a 30 min incubation at 25° C., incubation was terminated by rapid filtration through GF/B filters using a cell harvester. Inhibition experiments were analysed using a non-linear regression curve-fitting computer program to obtain Ki values.

In the case of `CCCCOc1cccc2c1CCN(CCC)C2` [Compound 5g, 5-butoxy-2-propyl-1,2,3,4-tetrahydroisoquinoline], the Ki (in general, a dissociation constant, usually derived from enzyme kinetics or from competition with a known ligand) was 264 nM.
For `CCCCCCCCCCCCCCOc1cccc2c1CN(C)CC2` [Compound 5m, 8-tetradecanyloxy-2-methyl-1,2,3,4-tetrahydroisoquinoline] the value was 25000 nM.
The result for `CN1CCc2c(cccc2OCC2CCCCC2)C1` [Compound 5h, 5-cyclohexylmethoxy-2-methyl-1,2,3,4-tetrahydroisoquinoline] reads 750 nM.
As for `CCCCCCCCCCCCCCOc1cccc2c1CCN(C)C2` [Compound 5k, 5-tetradecanyloxy-2-methyl-1,2,3,4-tetrahydroisoquinoline], the Ki is 6480 nM.
As to `CN1CCc2cccc(OCC3CCCCC3)c2C1` [Compound 5j, 8-cyclohexylmethoxy-2-methyl-1,2,3,4-tetrahydroisoquinoline], the Ki was 173 nM.
For `CCCCCCCCCCCCCCOc1ccc2c(c1)CCN(C)C2` [Compound 5l, 6-tetradecanyloxy-2-methyl-1,2,3,4-tetrahydroisoquinoline] the value was 266 nM; for `CN1CCc2cccc(OCc3ccc(F)c(F)c3)c2C1` [Compound 5f, 8-(3,4-difluorophenylmethoxy)-2-methyl-1,2,3,4-tetrahydroisoquinoline], 490 nM.
For `CN1CCc2c(cccc2OCc2ccc(F)c(F)c2)C1` [Compound 5d, 5-(3,4-difluorophenylmethoxy)-2-methyl-1,2,3,4-tetrahydroisoquinoline] the value was 318 nM.
With `CN1CCc2cc(OCc3ccc(F)c(F)c3)ccc2C1` [Compound 5e, 6-(3,4-difluorophenylmethoxy)-2-methyl-1,2,3,4-tetrahydroisoquinoline], the Ki is 1430 nM.
The result for `CN1CCc2cc(OCC3CCCCC3)ccc2C1` [Compound 5i, 6-cyclohexylmethoxy-2-methyl-1,2,3,4-tetrahydroisoquinoline] reads 977 nM.
The result for `CN1CCc2c(cccc2OCCCCCC#N)C1` [Compound 5b, 5-(5-cyano-1-pentyloxy)-2-methyl-1,2,3,4-tetrahydroisoquinoline] reads 1040 nM.
As to `CN1CCc2cc(OCCCCCC#N)ccc2C1` [Compound 5c, 6-(5-cyano-1-pentyloxy)-2-methyl-1,2,3,4-tetrahydroisoquinoline], the Ki came out at 3710 nM.
